Results taken from the kinase profiling compilation of Christmann-Franck et al. (2016).

What was measured:
Assay in all cases: KINOMEscan competition binding
Settings in all cases: compound 10.0 µM
[1] = biological target: PRKACB (human) (UniProt P22694)
[2] = biological target: YSK4 (human) (UniProt Q56UN5)
[3] = biological target: EIF2AK2 (human) (UniProt P19525)
[4] = biological target: CIT (human) (UniProt O14578)
[5] = biological target: ERN1 (human) (UniProt O75460)
[6] = biological target: MAP2K4 (human) (UniProt P45985)
[7] = biological target: TLK2 (human) (UniProt Q86UE8)
[8] = biological target: FGR (human) (UniProt P09769)
[9] = biological target: TYK2 JH2 pseudokinase (human) (UniProt P29597)
[10] = biological target: ACVRL1 (human) (UniProt P37023)
[11] = biological target: MYLK4 (human) (UniProt Q86YV6)
[12] = biological target: MST4 (human) (UniProt Q9P289)
[13] = biological target: TTK (human) (UniProt P33981)
[14] = biological target: DAPK1 (human) (UniProt P53355)
[15] = biological target: PLK2 (human) (UniProt Q9NYY3)
[16] = biological target: STK39 (human) (UniProt Q9UEW8)
[17] = biological target: MYO3B (human) (UniProt Q8WXR4)
[18] = biological target: PLK1 (human) (UniProt P53350)
[19] = biological target: NEK7 (human) (UniProt Q8TDX7)
[20] = test system: PIK3CA (human), P42336 [Q546K]
[21] = biological target: STK32A (human) (UniProt Q8WU08)
[22] = biological target: GAK (human) (UniProt O14976)
[23] = biological target: MAPK6 (human) (UniProt Q16659)
Sequence of MAPK6 (human) (Q16659 whole entry, looked up): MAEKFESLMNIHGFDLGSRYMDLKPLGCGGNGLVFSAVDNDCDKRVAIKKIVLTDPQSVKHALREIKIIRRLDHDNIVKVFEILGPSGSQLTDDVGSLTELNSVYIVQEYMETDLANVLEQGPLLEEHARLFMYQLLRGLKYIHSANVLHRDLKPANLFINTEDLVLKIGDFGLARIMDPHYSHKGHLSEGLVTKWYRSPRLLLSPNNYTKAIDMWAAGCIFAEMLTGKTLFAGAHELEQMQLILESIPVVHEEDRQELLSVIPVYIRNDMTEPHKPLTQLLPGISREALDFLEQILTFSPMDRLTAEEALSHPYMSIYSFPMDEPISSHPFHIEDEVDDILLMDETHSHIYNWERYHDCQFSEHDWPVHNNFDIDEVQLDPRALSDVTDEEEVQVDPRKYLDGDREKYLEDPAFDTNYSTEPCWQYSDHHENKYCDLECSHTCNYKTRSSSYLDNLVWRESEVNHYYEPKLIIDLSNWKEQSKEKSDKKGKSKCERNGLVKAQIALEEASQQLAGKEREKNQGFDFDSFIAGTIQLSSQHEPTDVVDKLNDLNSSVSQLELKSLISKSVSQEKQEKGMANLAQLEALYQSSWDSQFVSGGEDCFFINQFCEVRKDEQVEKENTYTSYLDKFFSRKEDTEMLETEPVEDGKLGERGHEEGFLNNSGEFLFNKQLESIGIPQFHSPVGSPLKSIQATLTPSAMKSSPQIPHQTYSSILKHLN

[24] = biological target: MAP4K3 (human) (UniProt Q8IVH8)
[25] = biological target: ACVR1B (human) (UniProt P36896)
Sequence of ACVR1B (human) (P36896 whole entry, looked up): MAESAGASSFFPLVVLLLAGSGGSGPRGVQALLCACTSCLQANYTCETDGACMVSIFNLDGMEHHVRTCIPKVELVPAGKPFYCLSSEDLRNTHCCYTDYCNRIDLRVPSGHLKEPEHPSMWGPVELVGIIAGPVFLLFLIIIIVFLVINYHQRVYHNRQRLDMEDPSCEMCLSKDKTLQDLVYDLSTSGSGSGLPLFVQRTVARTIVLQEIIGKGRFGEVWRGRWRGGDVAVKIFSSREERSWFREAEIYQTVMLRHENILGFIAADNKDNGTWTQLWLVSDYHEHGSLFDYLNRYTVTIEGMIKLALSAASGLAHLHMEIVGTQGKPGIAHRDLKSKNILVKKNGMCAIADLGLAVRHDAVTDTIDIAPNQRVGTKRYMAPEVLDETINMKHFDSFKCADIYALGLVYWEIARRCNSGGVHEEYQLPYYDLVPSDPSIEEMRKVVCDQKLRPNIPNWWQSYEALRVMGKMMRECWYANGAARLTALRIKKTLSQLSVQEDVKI

[26] = biological target: BTK (human) (UniProt Q06187)
[27] = biological target: FGFR4 (human) (UniProt P22455)
Sequence of FGFR4 (human) (P22455 whole entry, looked up): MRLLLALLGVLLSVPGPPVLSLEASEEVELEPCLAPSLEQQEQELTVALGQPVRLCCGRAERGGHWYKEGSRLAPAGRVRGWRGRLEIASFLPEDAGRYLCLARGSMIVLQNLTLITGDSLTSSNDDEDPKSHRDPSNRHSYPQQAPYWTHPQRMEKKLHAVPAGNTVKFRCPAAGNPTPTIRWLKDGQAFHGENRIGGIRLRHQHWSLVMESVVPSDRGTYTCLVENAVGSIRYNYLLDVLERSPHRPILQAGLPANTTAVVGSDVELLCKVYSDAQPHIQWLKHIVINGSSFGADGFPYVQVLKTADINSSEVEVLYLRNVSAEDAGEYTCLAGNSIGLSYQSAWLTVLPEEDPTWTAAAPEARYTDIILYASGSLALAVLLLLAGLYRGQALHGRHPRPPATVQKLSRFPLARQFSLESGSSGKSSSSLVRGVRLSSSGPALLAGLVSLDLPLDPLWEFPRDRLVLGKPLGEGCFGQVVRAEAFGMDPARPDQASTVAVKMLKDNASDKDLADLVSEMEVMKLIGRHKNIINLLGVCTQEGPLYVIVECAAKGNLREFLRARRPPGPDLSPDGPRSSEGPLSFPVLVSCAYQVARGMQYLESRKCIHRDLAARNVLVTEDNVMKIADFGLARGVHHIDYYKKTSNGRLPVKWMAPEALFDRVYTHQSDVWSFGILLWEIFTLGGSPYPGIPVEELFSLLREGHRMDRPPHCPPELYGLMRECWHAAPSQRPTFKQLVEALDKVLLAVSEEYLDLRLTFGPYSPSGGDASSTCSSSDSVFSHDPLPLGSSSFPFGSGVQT

[28] = biological target: CAMK2B (human) (UniProt Q13554)
[29] = biological target: CAMK4 (human) (UniProt Q16566)
[30] = biological target: ERBB2 (human) (UniProt P04626)
[31] = biological target: PRKAA2 (human) (UniProt P54646)
[32] = biological target: CSNK1G3 (human) (UniProt Q9Y6M4)
[33] = biological target: MAP2K6 (human) (UniProt P52564)
Sequence of MAP2K6 (human) (P52564 whole entry, looked up): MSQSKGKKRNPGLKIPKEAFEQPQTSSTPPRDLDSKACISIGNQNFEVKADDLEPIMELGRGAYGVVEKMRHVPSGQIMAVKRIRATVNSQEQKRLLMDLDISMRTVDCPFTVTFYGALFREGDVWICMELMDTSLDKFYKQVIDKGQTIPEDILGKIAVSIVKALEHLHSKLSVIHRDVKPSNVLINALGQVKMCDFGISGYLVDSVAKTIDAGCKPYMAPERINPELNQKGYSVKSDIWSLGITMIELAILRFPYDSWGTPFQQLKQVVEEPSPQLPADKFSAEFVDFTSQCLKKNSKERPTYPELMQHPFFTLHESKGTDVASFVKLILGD

[34] = biological target: CDC42BPA (human) (UniProt Q5VT25)
[35] = biological target: RPS6KA4 KD1 (human) (UniProt O75676)
[36] = biological target: PKN2 (human) (UniProt Q16513)
[37] = biological target: RPS6KA6 KD2 (human) (UniProt Q9UK32)
[38] = test system: FLT3 (human), P36888 [K663Q]
[39] = biological target: CaMK1 (human) (UniProt Q14012)
[40] = biological target: PRKCQ (human) (UniProt Q04759)
Sequence of PRKCQ (human) (Q04759 whole entry, looked up): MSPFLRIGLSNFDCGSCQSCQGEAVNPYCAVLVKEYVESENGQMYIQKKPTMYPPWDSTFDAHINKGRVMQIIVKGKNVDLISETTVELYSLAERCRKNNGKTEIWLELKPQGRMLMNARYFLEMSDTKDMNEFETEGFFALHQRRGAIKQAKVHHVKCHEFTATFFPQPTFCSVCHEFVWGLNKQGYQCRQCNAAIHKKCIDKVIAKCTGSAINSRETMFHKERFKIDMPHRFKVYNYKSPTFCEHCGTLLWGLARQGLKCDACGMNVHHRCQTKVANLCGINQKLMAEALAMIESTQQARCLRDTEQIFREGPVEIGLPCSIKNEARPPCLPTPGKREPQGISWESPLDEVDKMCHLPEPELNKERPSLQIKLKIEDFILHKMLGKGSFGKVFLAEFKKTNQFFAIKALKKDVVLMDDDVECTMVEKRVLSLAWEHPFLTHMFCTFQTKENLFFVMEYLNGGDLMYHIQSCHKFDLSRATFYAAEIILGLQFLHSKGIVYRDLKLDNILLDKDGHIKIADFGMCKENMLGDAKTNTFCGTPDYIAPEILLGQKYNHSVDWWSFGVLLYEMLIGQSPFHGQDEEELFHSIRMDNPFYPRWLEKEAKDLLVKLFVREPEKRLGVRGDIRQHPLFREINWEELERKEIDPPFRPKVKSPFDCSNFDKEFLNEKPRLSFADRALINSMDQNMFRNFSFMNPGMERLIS

Sequence of CIT (human) (O14578 whole entry, looked up): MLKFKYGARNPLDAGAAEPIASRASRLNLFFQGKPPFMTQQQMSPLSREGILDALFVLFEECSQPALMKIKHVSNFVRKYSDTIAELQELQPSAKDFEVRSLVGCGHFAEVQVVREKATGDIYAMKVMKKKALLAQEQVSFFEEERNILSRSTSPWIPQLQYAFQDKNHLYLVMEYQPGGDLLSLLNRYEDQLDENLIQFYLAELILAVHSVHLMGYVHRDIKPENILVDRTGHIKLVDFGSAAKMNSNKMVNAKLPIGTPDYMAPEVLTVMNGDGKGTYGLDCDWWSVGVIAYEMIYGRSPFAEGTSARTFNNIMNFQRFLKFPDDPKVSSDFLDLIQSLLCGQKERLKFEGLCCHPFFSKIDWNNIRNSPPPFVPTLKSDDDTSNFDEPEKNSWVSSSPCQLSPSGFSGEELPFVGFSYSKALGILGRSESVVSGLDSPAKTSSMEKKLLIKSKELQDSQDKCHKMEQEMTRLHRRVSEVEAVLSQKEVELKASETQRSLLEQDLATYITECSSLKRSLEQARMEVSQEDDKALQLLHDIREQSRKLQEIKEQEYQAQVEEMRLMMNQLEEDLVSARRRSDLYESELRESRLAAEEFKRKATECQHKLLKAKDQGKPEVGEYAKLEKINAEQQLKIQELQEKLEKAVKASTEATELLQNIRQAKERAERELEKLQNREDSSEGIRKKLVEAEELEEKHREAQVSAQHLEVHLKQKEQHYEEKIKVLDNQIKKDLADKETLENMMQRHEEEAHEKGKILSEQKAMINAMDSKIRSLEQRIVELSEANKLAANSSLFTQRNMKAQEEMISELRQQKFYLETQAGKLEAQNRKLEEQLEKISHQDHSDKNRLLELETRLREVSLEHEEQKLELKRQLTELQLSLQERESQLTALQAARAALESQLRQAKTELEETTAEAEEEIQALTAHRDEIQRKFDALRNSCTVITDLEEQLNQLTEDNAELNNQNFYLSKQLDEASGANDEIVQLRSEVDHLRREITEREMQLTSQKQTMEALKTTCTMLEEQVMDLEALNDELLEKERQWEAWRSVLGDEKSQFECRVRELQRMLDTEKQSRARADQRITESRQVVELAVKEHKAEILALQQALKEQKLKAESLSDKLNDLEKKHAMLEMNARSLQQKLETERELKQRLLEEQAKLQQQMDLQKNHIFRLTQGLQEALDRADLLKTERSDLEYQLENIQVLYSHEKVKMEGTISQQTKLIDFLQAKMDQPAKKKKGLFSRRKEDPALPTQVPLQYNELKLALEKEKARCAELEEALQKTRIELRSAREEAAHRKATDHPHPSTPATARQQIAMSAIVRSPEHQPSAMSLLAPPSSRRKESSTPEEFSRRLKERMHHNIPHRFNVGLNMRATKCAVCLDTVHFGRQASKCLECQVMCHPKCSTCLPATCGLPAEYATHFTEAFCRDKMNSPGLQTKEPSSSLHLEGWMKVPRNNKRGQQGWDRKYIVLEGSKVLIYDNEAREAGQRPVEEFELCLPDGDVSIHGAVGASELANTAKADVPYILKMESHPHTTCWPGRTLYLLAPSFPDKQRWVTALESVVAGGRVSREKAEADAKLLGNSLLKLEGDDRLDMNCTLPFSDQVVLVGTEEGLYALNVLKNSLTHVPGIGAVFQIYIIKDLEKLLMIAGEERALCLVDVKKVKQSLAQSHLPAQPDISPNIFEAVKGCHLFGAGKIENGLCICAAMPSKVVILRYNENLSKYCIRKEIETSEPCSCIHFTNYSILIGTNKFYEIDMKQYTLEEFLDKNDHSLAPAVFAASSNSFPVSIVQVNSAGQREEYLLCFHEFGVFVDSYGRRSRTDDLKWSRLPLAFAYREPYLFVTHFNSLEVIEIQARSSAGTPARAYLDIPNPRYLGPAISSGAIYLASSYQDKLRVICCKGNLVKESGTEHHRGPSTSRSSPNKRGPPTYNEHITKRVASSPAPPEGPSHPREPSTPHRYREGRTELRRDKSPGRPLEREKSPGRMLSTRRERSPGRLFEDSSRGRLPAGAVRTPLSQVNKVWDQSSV

| SMILES | kinase still bound, per cent of control [1] [%] | kinase still bound, per cent of control [2] [%] | kinase still bound, per cent of control [3] [%] | kinase still bound, per cent of control [4] [%] | kinase still bound, per cent of control [5] [%] | kinase still bound, per cent of control [6] [%] | kinase still bound, per cent of control [7] [%] | kinase still bound, per cent of control [8] [%] | kinase still bound, per cent of control [9] [%] | kinase still bound, per cent of control [10] [%] | kinase still bound, per cent of control [11] [%] | kinase still bound, per cent of control [12] [%] | kinase still bound, per cent of control [13] [%] | kinase still bound, per cent of control [14] [%] | kinase still bound, per cent of control [15] [%] | kinase still bound, per cent of control [16] [%] | kinase still bound, per cent of control [17] [%] | kinase still bound, per cent of control [18] [%] | kinase still bound, per cent of control [19] [%] | kinase still bound, per cent of control [20] [%] | further results |
| --- | --- | --- | --- | --- | --- | --- | --- | --- | --- | --- | --- | --- | --- | --- | --- | --- | --- | --- | --- | --- | --- |
| O=C1Nc2ccc(I)cc2/C1=C/c1cc(Br)c(O)c(Br)c1 | 100 | 0.4 | 75 | 5.6 | 57 | 3.4 | 83 | 86 | 100 | 100 | 14 | 100 | 17 | 6.2 | 71 | 100 | 8.6 | 100 | 100 | 97 | kinase still bound, per cent of control [21]: 91%; kinase still bound, per cent of control [22]: 1.6%; kinase still bound, per cent of control [23]: 100%; kinase still bound, per cent of control [24]: 100%; kinase still bound, per cent of control [25]: 33%; kinase still bound, per cent of control [26]: 99%; kinase still bound, per cent of control [27]: 100%; kinase still bound, per cent of control [28]: 17%; kinase still bound, per cent of control [29]: 100%; kinase still bound, per cent of control [30]: 94%; kinase still bound, per cent of control [31]: 100%; kinase still bound, per cent of control [32]: 94%; kinase still bound, per cent of control [33]: 71%; kinase still bound, per cent of control [34]: 100%; kinase still bound, per cent of control [35]: 87%; kinase still bound, per cent of control [36]: 99%; kinase still bound, per cent of control [37]: 1.7%; kinase still bound, per cent of control [38]: 11%; kinase still bound, per cent of control [39]: 70%; kinase still bound, per cent of control [40]: 90% |
| CN(C)C/C=C/C(=O)Nc1cccc(Nc2ncc3c(n2)N(C)c2ccccc2C(=O)N3C)c1 | 100 | 6.2 | 75 | 86 | 69 | 100 | 88 | 4.2 | 18 | 100 | 86 | 31 | 28 | 52 | 37 | 100 | 100 | 22 | 100 | 30 | kinase still bound, per cent of control [21]: 100%; kinase still bound, per cent of control [22]: 13%; kinase still bound, per cent of control [23]: 46%; kinase still bound, per cent of control [24]: 28%; kinase still bound, per cent of control [25]: 53%; kinase still bound, per cent of control [26]: 42%; kinase still bound, per cent of control [27]: 22%; kinase still bound, per cent of control [28]: 40%; kinase still bound, per cent of control [29]: 100%; kinase still bound, per cent of control [30]: 65%; kinase still bound, per cent of control [31]: 1.4%; kinase still bound, per cent of control [32]: 39%; kinase still bound, per cent of control [33]: 95%; kinase still bound, per cent of control [34]: 100%; kinase still bound, per cent of control [35]: 59%; kinase still bound, per cent of control [36]: 64%; kinase still bound, per cent of control [37]: 0.6%; kinase still bound, per cent of control [38]: 37%; kinase still bound, per cent of control [39]: 49%; kinase still bound, per cent of control [40]: 83% |
| N#Cc1c(NC(=O)c2cccc3ccccc23)sc2c1CCCC2 | 80 | 100 | 100 | 100 | 90 | 94 | 100 | 100 | 100 | 100 | 98 | 79 | 91 | 85 | 100 | 100 | 88 | 81 | 84 | 79 | kinase still bound, per cent of control [21]: 81%; kinase still bound, per cent of control [22]: 67%; kinase still bound, per cent of control [23]: 86%; kinase still bound, per cent of control [24]: 79%; kinase still bound, per cent of control [25]: 100%; kinase still bound, per cent of control [26]: 90%; kinase still bound, per cent of control [27]: 49%; kinase still bound, per cent of control [28]: 90%; kinase still bound, per cent of control [29]: 100%; kinase still bound, per cent of control [30]: 87%; kinase still bound, per cent of control [31]: 84%; kinase still bound, per cent of control [32]: 68%; kinase still bound, per cent of control [33]: 100%; kinase still bound, per cent of control [34]: 100%; kinase still bound, per cent of control [35]: 91%; kinase still bound, per cent of control [36]: 81%; kinase still bound, per cent of control [37]: 77%; kinase still bound, per cent of control [38]: 93%; kinase still bound, per cent of control [39]: 73%; kinase still bound, per cent of control [40]: 86% |
